TGI and GI50 data for 14 molecules are collected here from PubChem BioAssay (NCI).

Assay in all cases: NCI tumour cell line growth inhibition, 48 h
In experiment [1] the test system is DU-145 prostate.
Experiment [2] deals with HCT-116 colon.
For experiment [3], the system named is SF-539 CNS.
The test system of experiment [4] is LOX IMVI melanoma.
Experiment [5] has as its system SK-MEL-2 melanoma.
Experiment [6] deals with ACHN renal.
The test system of experiment [7] is NCI/ADR-RES ovarian.
Experiment [8] deals with OVCAR-5 ovarian.
The test system of experiment [9] is SF-268 CNS.
In experiment [10] the test system is OVCAR-3 ovarian.

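These data come from cells grown in 96-well plates and exposed to compound for 48 hours at five concentrations. GI50 marks 50% less growth. At the TGI there is no net growth.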 Where a SMILES comes first, the peptide text is derived from it. The star is where a group is joined. Cbz = O=C(OCc1ccccc1)*; OBn = c1ccc(CO*)cc1

`COc1ccc(Br)c2c1CC(C(=O)O)CC2` (centres undefined): the TGI in experiment [1], in [2], in experiment [3], in experiment [4], in experiment [5] and in experiment [6] was more than 100 µM each time. The TGI in experiment [7], in experiment [8], in experiment [9] and in experiment [10] was more than 100 µM in each case.
For the molecule `Nc1ccn(C2CC(O)C(COP(O)(=S)OC3CC(n4ccc(N)nc4=O)OC3CO)O2)c(=O)n1` (centres undefined), the TGI in [1], in experiment [2], in [3], in experiment [4], in [5] and in experiment [6] was more than 100 µM in each case. The TGI in experiment [7], in experiment [8], in experiment [9] and in experiment [10] was more than 100 µM each time.
Consider `CCCCCC(=O)Nc1n[nH]nc1C(N)=O`, for which the TGI in experiment [1], in [2], in [3], in [4], in experiment [5] and in [6] was more than 100 µM in each case. For the same molecule, the TGI in experiment [7], in experiment [8], in experiment [9] and in [10] was more than 100 µM in each case.
Regarding `COC(=O)N1C[C@@]2(C=CC3(CC2)OCCO3)c2ccccc21`, the TGI in experiment [1] is more than 100 µM; in experiment [2], more than 100 µM; in [4] it was more than 100 µM; in [5] it was more than 100 µM; in [6], more than 100 µM; in [7], 95.6 µM. Moreover, the TGI in experiment [8] and in experiment [10] was more than 100 µM in each case.
Turning to `Fc1c(F)c(C(F)(F)F)c(F)c(F)c1N/N=C\c1c[nH]c2ccccc12`, the TGI in experiment [1] is 15.8 µM; in [2] it was 14.5 µM; in [4], 12.1 µM; in experiment [5], 8.81 µM; in [6], 19.5 µM; in experiment [7] it was 5.84 µM. Also, the TGI in [8] was 14.3 µM; in experiment [9] it was 19.4 µM; in [10] it was 4.7 µM.
For the molecule `C=C1C(=O)C([Si](C)(C)C)=C2C=C(C)C3(CC3)C12C` (centres undefined), the TGI is more than 100 µM in experiment [1]; more than 100 µM in experiment [2]; 89 µM in experiment [4]; 61.1 µM in experiment [5]; more than 100 µM in experiment [6]; 44.2 µM in experiment [7]. The TGI in experiment [8], in [9] and in experiment [10] was more than 100 µM in each case.
Regarding `O=C(O)C(=C\c1ccc2c(c1)OCO2)/C(=C/c1ccc2c(c1)OCO2)C(=O)O`, the TGI in experiment [1], in [2], in experiment [4], in [5], in experiment [7] and in experiment [8] was more than 100 µM in each case. Further, the TGI in experiment [10] is more than 100 µM.
Take `Cn1nc(Cc2ccc(Cl)cc2)n(N)c1=O`: the TGI in experiment [1], in experiment [2], in experiment [3], in experiment [6], in experiment [7] and in experiment [8] was more than 100 µM throughout. In addition, the TGI in [9] is more than 100 µM.
Consider `Cc1ccc(NCC2CC/C(=C\c3ccc(Cl)cc3)C2=O)cc1` (centres undefined), for which the TGI in [1] was more than 80.6 µM; in [2], 26 µM; in experiment [3] it was more than 60.7 µM; in experiment [4] it was 19 µM; in experiment [6] it was more than 71.5 µM; in experiment [7], more than 80.1 µM. The TGI in experiment [8] was more than 54.5 µM; in experiment [9], 56.4 µM; in experiment [10] it was 29.1 µM.
`COC(=O)CNC(=O)C(C)NC(=O)C(CC(=O)OCc1ccccc1)NC(=O)OCc1ccccc1` (stereo not drawn) (Cbz-Asp(OBn)-Ala-Gly-OMe; configuration not given here): the TGI in experiment [1], in experiment [2], in experiment [3], in experiment [5], in experiment [7] and in experiment [8] was more than 100 µM each time. Also, the TGI in [10] is more than 100 µM.
As for `COc1ccc(-c2ccc(-c3ccc(C(=N)N)nc3)s2)cc1`, the GI50 is 1.77 µM in experiment [1]; 1.73 µM in experiment [3]; 1.84 µM in [6]; 1.94 µM in experiment [7]; 1.67 µM in experiment [8]; 1.76 µM in experiment [9]. Moreover, the GI50 in [10] was 1.82 µM. Moreover, the TGI in [1] amounted to 3.17 µM; in experiment [3], 3.17 µM; in experiment [6] it was 3.24 µM; in experiment [7], 3.75 µM; in experiment [8], 3.11 µM; in experiment [9] it was 3.28 µM. For the same molecule, in experiment [10], the TGI was 3.27 µM.
Consider `CCOC(=O)CCC(NC(=O)Cc1ccc(Nc2nc3ccccc3nc2-c2ccccc2)cc1)C(=O)OCC` (centres undefined), for which the TGI is more than 100 µM in experiment [1]; more than 100 µM in experiment [2]; more than 100 µM in experiment [3]; more than 100 µM in experiment [4]; 72.7 µM in experiment [5]; more than 100 µM in experiment [6]. For the same molecule, the TGI was more than 100 µM in experiment [7], more than 100 µM in experiment [8] and 23.7 µM in [9].
For `COc1ccc2c(c1)CC[C@@H]1[C@@H]2CC[C@]2(C)C(=O)C3(CCCCC3)C[C@@H]12`, the GI50 in [1], in [2], in experiment [3], in experiment [4], in [5] and in experiment [6] was more than 100 µM throughout. Further, the GI50 in [7] and in experiment [10] was more than 100 µM each time. The TGI in experiment [1], in experiment [2], in experiment [3], in experiment [4], in experiment [5] and in experiment [6] was more than 100 µM in each case. In addition, the TGI in experiment [7] and in experiment [10] was more than 100 µM in each case.
Turning to `NCCCNCCCNCCCN`, the TGI in experiment [1], in experiment [2], in experiment [4], in [5], in [6] and in experiment [7] was more than 100 µM in each case. Besides, the TGI in [8] was more than 100 µM; in [9], 8.96 µM; in [10], more than 100 µM.
